The values that follow come from patent US8455223B2, “Dehydrogenases, the derivatives thereof, and method for the production of optically active alkanols” (BASF SE, priority 2005, dated 2013).

For experiment [1], the system named is ADH-3 enzyme SEQ ID NO: 2. The experiment can be described thus: Relative activity of dehydrogenase for various substrates, without cofactor regeneration (Example 1). In kind it is biochemical, Candida. Particulars: 37° C., approx. 20 hours, chiral gas chromatography. The procedure: (§1) Relative activity of the dehydrogenases of the invention for various substrates (optical purity in % ee is indicated in brackets)
(§2) The reaction was carried out without cofactor regeneration.
(§3) 180 μl of 50 mM Kpi buffer, including 1 mM MgCl2
(§4) 200 μl of NADPH, 10 mM stock solution
(§5) 100 μl of substrate, 1 M stock solution 500 μl of hexane
(§6) The reaction mixture was incubated at 37° C. and 1000 rpm for approx. 20 hours. It was then centrifuged at 20° C., the clear supernatant was removed and analyzed by chiral gas chromatography.

Experiment [2] concerns ADH-4 enzyme SEQ ID NO: 4. Described as above. In kind it is biochemical, Candida. Particulars: 37° C., approx. 20 hours, chiral gas chromatography. How it is done:
as §1, §2, §3, §4, §5, §6

The subject of experiment [3] is Comparative enzyme EP 1152054 SEQ ID NO: 1. Described as above. The experiment is classed as biochemical. Particulars: 37° C., approx. 20 hours. How it is done:
as §1, §2, §3, §4, §5, §6

The subject of experiment [4] is ADH-3 enzyme SEQ ID NO: 2. Nature of the experiment: Relative activity of dehydrogenase for various substrates, with cofactor regeneration in the 2-phase system (Example 3). In kind it is biochemical, Candida.
The subject of experiment [5] is ADH-4 enzyme SEQ ID NO: 4. Described as above. The experiment is classed as biochemical, Candida.
The subject of experiment [6] is Comparative enzyme EP 1152054 SEQ ID NO: 1. The description is as above. The experiment is classed as biochemical.
For experiment [7], the system named is ADH-3 enzyme SEQ ID NO: 2. The experiment can be described thus: Relative activity of dehydrogenase for various substrates, with cofactor regeneration, monophasic liquid system (Example 2). The experiment is classed as biochemical, Candida. Particulars: cofactor regeneration with glucose and glucose dehydrogenase. How it is done: (§7) Relative activity of the dehydrogenases of the invention for various substrates (optical purity in % ee is indicated in brackets) with cofactor regeneration.
(§8) The reaction was carried out in a manner similar to example 1. Cofactor regeneration was carried out by way of addition of glucose and glucose dehydrogenase in a monophasic liquid system.

Experiment [8] concerns Comparative enzyme EP 1152054 SEQ ID NO: 1. The experiment is described as above. The experiment is classed as biochemical. Particulars: cofactor regeneration with glucose and glucose dehydrogenase. How it is done: as §7, §8
In experiment [9] the test system is ADH-4 enzyme SEQ ID NO: 4. The experiment is described as above. In kind it is biochemical, Candida. The settings on record: cofactor regeneration with glucose and glucose dehydrogenase. The procedure: as §7, §8
[10] abbreviates: ADH-3 enzyme, cofactor regeneration, two-phase liquid system (MTBE: aqueous).
The mark [11] stands for this setting: ADH-4 enzyme, cofactor regeneration, two-phase liquid system (MTBE: aqueous).
[12] abbreviates: cofactor regeneration, two-phase liquid system (MTBE: aqueous).

As to 4-chloro-methoxyacetophenone [CMAP], the Relative activity came to 34.46 in [1]; 24.89 in [2]; 29.44 in experiment [3]; 100 in [4] (setting [10]); 77.1 in [5] (setting [11]); 46.8 in experiment [6] (setting [12]).

For `CC(=O)c1ccccc1` [Acetophenone], the Relative activity in experiment [1] is 16.08; in experiment [2], 3.14; in experiment [3], 0.84; in experiment [7], 8.9; in experiment [8], 0.7; in experiment [4] (setting [10]), 71.2. Besides, the Relative activity in experiment [5] (setting [11]) turned out to be 0.4; in experiment [6] (setting [12]), 0.2.

With `O=C(CCl)c1ccc(F)cc1` [FCA, 4′-fluoro-2-chloro-acetophenone], the Relative activity came out at 99.5 in experiment [7]; 53.6 in experiment [9]; 50.4 in experiment [8]; 99.5 in experiment [4]; 15.3 in experiment [5]; 12.6 in [6] ([…]).

Consider `O=C(CCl)c1cccc(Cl)c1` [m-DICAP, 2,3′-dichloro-acetophenone], for which the Relative activity was 100 in [1]; 56.38 in [2]; 2.3 in experiment [3]; 100 in experiment [7]; 55.8 in [9]; 47.1 in experiment [8]. Besides, the Relative activity is listed as 100 in experiment [4], 24.6 (6% S) in [5] and 14 (>99% R) in experiment [6] ([…]).

As to `O=C(CCl)c1ccc(Cl)cc1` [p-DICAP, 2,4′-dichloro-acetophenone], the Relative activity in experiment [7] is on record as 18.9; in [9], 62.1; in [8], 62.5; in [4], 30.4 (>99% R); in experiment [5], 27.6 (42% S); in experiment [6] ([…]), 24.2 (>99% R).
